Measurements reported in PMC3433420 (PLoS ONE, 2012).
Non-standard residues stand in square brackets, D forms with d. Residues, ends and D or L forms follow the SMILES beside them. No end group written: not given here. pY = N[C@@H](Cc1ccc(OP(=O)(O)O)cc1)C(=O)O

What was measured:
[1] = tested on: SH2 and PTB domains; assay: Sum of relative binding free energies (ΔΔG) from FP KDs, relative to 20 µM threshold; design: species or system human; unit not given here; conditions: for Sum free energies (ΔΔG): summed over the receptor's phosphopeptides
Method: In order to further define and classify commonalities and differences among the ErbB family, the relative binding free energy (FE) of each SH2 domain was summed across all phosphosites on each receptor relative to the assay detection threshold of 20 µM according to Equation (3): [drawing 10] (3)

[2] = molecular target: T1, RASA1-N SH2 domain (Homo sapiens, UniProt P20936); assay: FP saturation binding assay
T1 sequence (P20936 181-272 limits assumed): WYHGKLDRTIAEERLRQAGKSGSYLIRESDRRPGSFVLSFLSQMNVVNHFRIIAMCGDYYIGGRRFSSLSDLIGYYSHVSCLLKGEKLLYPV

ErbB3 (SEQG[pY]EEMRAFQD)
Sum free energies (ΔΔG) ([1]; domain ABL1): 0.48
Sum free energies (ΔΔG) ([1]; domain ABL2): 1.81
Sum free energies (ΔΔG) ([1]; domain BCAR3): 1.81
Sum free energies (ΔΔG) ([1]; domain BLK): 4.66
Sum free energies (ΔΔG) ([1]; domain BLNK): 1.99
Sum free energies (ΔΔG) ([1]; domain BMX): 0.00
Sum free energies (ΔΔG) ([1]; domain BTK): 0.53
Sum free energies (ΔΔG) ([1]; domain CRK): 2.18
Sum free energies (ΔΔG) ([1]; domain CRKL): 0.00
Sum free energies (ΔΔG) ([1]; domain DAPP1): 0.00
Sum free energies (ΔΔG) ([1]; domain FER): 1.84
Sum free energies (ΔΔG) ([1]; domain FES): 2.60
Sum free energies (ΔΔG) ([1]; domain FGR): 2.50
Sum free energies (ΔΔG) ([1]; domain GRAP2): 0.40
Sum free energies (ΔΔG) ([1]; domain GRB2): 0.00
Sum free energies (ΔΔG) ([1]; domain GRB7): 8.74
Sum free energies (ΔΔG) ([1]; domain GRB10): 0.00
Sum free energies (ΔΔG) ([1]; domain GRB14): 0.00
Sum free energies (ΔΔG) ([1]; domain HCK): 5.34
Sum free energies (ΔΔG) ([1]; domain HSH2D): 2.34
Sum free energies (ΔΔG) ([1]; domain INPPL1): 1.51
Sum free energies (ΔΔG) ([1]; domain ITK): 1.44
Sum free energies (ΔΔG) ([1]; domain LCK): 9.34
Sum free energies (ΔΔG) ([1]; domain LCP2): 1.08
Sum free energies (ΔΔG) ([1]; domain LYN): 6.66
Sum free energies (ΔΔG) ([1]; domain MATK): 2.34
Sum free energies (ΔΔG) ([1]; domain NCK1): 1.97
Sum free energies (ΔΔG) ([1]; domain NCK2): 2.78
Sum free energies (ΔΔG) ([1]; domain PIK3R1-C): 15.79
Sum free energies (ΔΔG) ([1]; domain PIK3R1-N): 15.42
Sum free energies (ΔΔG) ([1]; domain PIK3R1-NC): 18.21
Sum free energies (ΔΔG) ([1]; domain PIK3R2-C): 4.66
Sum free energies (ΔΔG) ([1]; domain PIK3R2-N): 15.58
Sum free energies (ΔΔG) ([1]; domain PIK3R2-NC): 17.40
Sum free energies (ΔΔG) ([1]; domain PIK3R3-C): 14.57
Sum free energies (ΔΔG) ([1]; domain PIK3R3-N): 18.45
Sum free energies (ΔΔG) ([1]; domain PIK3R3-NC): 23.70
Sum free energies (ΔΔG) ([1]; domain PLCG1-C): 12.45
Sum free energies (ΔΔG) ([1]; domain PLCG1-N): 2.23
Sum free energies (ΔΔG) ([1]; domain PLCG1-NC): 12.83
Sum free energies (ΔΔG) ([1]; domain PLCG2-N): 0.60
Sum free energies (ΔΔG) ([1]; domain PLCG2-NC): 3.76
Sum free energies (ΔΔG) ([1]; domain PTK6): 7.16
Sum free energies (ΔΔG) ([1]; domain PTPN6-C): 0.00
Sum free energies (ΔΔG) ([1]; domain PTPN6-NC): 0.00
Sum free energies (ΔΔG) ([1]; domain PTPN11-C): 0.00
Sum free energies (ΔΔG) ([1]; domain PTPN11-N): 4.57
Sum free energies (ΔΔG) ([1]; domain PTPN11-NC): 4.70
Sum free energies (ΔΔG) ([1]; domain RASA1-C): 0.68
Sum free energies (ΔΔG) ([1]; domain RASA1-N): 11.64
Sum free energies (ΔΔG) ([1]; domain RASA1-NC): 10.86
Sum free energies (ΔΔG) ([1]; domain SH2B2): 0.53
Sum free energies (ΔΔG) ([1]; domain SH2B3): 5.05
Sum free energies (ΔΔG) ([1]; domain SH2B): 1.60
Sum free energies (ΔΔG) ([1]; domain SH2D1A): 6.64
Sum free energies (ΔΔG) ([1]; domain SH2D1B): 6.98
Sum free energies (ΔΔG) ([1]; domain SH2D2A): 10.39
Sum free energies (ΔΔG) ([1]; domain SH2D3A): 0.00
Sum free energies (ΔΔG) ([1]; domain SH2D3C): 5.13
Sum free energies (ΔΔG) ([1]; domain SH3BP2): 1.31
Sum free energies (ΔΔG) ([1]; domain SHB): 1.08
Sum free energies (ΔΔG) ([1]; domain SHC1-PTB): 8.01
Sum free energies (ΔΔG) ([1]; domain SHC1): 3.41
Sum free energies (ΔΔG) ([1]; domain SHC2-PTB): 4.78
Sum free energies (ΔΔG) ([1]; domain SHC3): 0.95
Sum free energies (ΔΔG) ([1]; domain SHC4): 1.50
Sum free energies (ΔΔG) ([1]; domain SHD): 1.64
Sum free energies (ΔΔG) ([1]; domain SHE): 0.00
Sum free energies (ΔΔG) ([1]; domain SHF): 0.00
Sum free energies (ΔΔG) ([1]; domain SLA2): 4.59
Sum free energies (ΔΔG) ([1]; domain SLA): 0.46
Sum free energies (ΔΔG) ([1]; domain SOCS1): 0.00
Sum free energies (ΔΔG) ([1]; domain SOCS2): 2.96
Sum free energies (ΔΔG) ([1]; domain SOCS3): 4.06
Sum free energies (ΔΔG) ([1]; domain SOCS5): 6.74
Sum free energies (ΔΔG) ([1]; domain SOCS6): 6.61
Sum free energies (ΔΔG) ([1]; domain SRC): 9.70
Sum free energies (ΔΔG) ([1]; domain STAP1): 1.44
Sum free energies (ΔΔG) ([1]; domain SUPT6H): 0.00
Sum free energies (ΔΔG) ([1]; domain SYK-C): 0.00
Sum free energies (ΔΔG) ([1]; domain SYK-N): 0.00
Sum free energies (ΔΔG) ([1]; domain SYK-NC): 2.08
Sum free energies (ΔΔG) ([1]; domain TEC): 0.70
Sum free energies (ΔΔG) ([1]; domain TENC1): 3.35
Sum free energies (ΔΔG) ([1]; domain TNS1): 3.92
Sum free energies (ΔΔG) ([1]; domain TNS3): 4.07
Sum free energies (ΔΔG) ([1]; domain TNS4): 0.67
Sum free energies (ΔΔG) ([1]; domain TXK): 1.88
Sum free energies (ΔΔG) ([1]; domain VAV1): 2.95
Sum free energies (ΔΔG) ([1]; domain VAV2): 5.08
Sum free energies (ΔΔG) ([1]; domain VAV3): 5.15
Sum free energies (ΔΔG) ([1]; domain YES1): 10.32
Sum free energies (ΔΔG) ([1]; domain ZAP70-C): 0.57
Sum free energies (ΔΔG) ([1]; domain ZAP70-N): 0.00
Sum free energies (ΔΔG) ([1]; domain ZAP70-NC): 6.20

FDNLYYWDQDPPD [ErbB2 Y1221 (non-phospho)]
Kd [2]: 3.69 µM

CC(C)C[C@H](NC(=O)[C@H](CCCNC(=N)N)NC(=O)[C@H](C)NC(=O)[C@H](Cc1ccc(OP(=O)(O)O)cc1)NC(=O)[C@H](Cc1c[nH]cn1)NC(=O)[C@@H](NC(=O)[C@H](Cc1c[nH]cn1)NC(=O)[C@@H]1CCCN1)C(C)C)C(=O)N[C@@H](CCCCN)C(=O)N[C@H](C(=O)N[C@@H](CC(C)C)C(=O)N[C@@H](CCCNC(=N)N)C(=O)N[C@@H](CC(=O)O)C(=O)O)[C@@H](C)O [ErbB3pY1307] (HELM PEPTIDE1{P.H.V.H.[O=C([C@H](Cc1ccc(OP(=O)(O)O)cc1)N[*:1])[*:2]].A.R.L.K.T.L.R.D}$$$$V2.0)
Kd [2]: 1.88 µM

ERBB3 (SEQG[pY]EEMRAFQD)
GO_SumDDG ([1]; GO group Adaptors): 1.375
GO_SumDDG ([1]; GO group Chromatin Remodeling): 0
GO_SumDDG ([1]; GO group Cytoskeletal Regulation): 3.549
GO_SumDDG ([1]; GO group Kinases): 3.776
GO_SumDDG ([1]; GO group Phosphatases): 2.349
GO_SumDDG ([1]; GO group Phosphatidyl Inositol Kinases): 12.5484
GO_SumDDG ([1]; GO group Phosphatidyl Inositol Phosphatases): 1.508
GO_SumDDG ([1]; GO group Phospholipases): 8.299
GO_SumDDG ([1]; GO group RAS GEFs): 3.469
GO_SumDDG ([1]; GO group RAS GTPases): 10.8637
GO_SumDDG ([1]; GO group RHO GEFs): 4.394
GO_SumDDG ([1]; GO group Scaffolds): 3.618
GO_SumDDG ([1]; GO group Signal Regulation): 2.5932
